Consider 32 molecules from ChEMBL document CHEMBL1136802, “Receptor-guided alignment-based comparative 3D-QSAR studies of benzylidene malonitrile tyrphostins as EGFR and HER-2 kinase inhibitors” (J Med Chem, 2003).

Assay [1] concerns the target T1, Epidermal growth factor receptor (Homo sapiens, UniProt P00533). Put plainly: Inhibitory activity against epidermal growth factor receptor (EGFR).
Assay [2] deals with T2, Receptor tyrosine-protein kinase erbB-2 (Homo sapiens, UniProt P04626). Put plainly: Inhibitory activity tested against protein kinase HER-2.
Assay [3] has as its target T2, Receptor tyrosine-protein kinase erbB-2. The experiment in a line: Inhibition of HER-2 ErbB2 receptor.
For assay [4], the target named is T1, Epidermal growth factor receptor. The experiment in a line: Inhibition of epidermal growth factor receptor (EGFR).

T2 sequence (P04626 whole entry): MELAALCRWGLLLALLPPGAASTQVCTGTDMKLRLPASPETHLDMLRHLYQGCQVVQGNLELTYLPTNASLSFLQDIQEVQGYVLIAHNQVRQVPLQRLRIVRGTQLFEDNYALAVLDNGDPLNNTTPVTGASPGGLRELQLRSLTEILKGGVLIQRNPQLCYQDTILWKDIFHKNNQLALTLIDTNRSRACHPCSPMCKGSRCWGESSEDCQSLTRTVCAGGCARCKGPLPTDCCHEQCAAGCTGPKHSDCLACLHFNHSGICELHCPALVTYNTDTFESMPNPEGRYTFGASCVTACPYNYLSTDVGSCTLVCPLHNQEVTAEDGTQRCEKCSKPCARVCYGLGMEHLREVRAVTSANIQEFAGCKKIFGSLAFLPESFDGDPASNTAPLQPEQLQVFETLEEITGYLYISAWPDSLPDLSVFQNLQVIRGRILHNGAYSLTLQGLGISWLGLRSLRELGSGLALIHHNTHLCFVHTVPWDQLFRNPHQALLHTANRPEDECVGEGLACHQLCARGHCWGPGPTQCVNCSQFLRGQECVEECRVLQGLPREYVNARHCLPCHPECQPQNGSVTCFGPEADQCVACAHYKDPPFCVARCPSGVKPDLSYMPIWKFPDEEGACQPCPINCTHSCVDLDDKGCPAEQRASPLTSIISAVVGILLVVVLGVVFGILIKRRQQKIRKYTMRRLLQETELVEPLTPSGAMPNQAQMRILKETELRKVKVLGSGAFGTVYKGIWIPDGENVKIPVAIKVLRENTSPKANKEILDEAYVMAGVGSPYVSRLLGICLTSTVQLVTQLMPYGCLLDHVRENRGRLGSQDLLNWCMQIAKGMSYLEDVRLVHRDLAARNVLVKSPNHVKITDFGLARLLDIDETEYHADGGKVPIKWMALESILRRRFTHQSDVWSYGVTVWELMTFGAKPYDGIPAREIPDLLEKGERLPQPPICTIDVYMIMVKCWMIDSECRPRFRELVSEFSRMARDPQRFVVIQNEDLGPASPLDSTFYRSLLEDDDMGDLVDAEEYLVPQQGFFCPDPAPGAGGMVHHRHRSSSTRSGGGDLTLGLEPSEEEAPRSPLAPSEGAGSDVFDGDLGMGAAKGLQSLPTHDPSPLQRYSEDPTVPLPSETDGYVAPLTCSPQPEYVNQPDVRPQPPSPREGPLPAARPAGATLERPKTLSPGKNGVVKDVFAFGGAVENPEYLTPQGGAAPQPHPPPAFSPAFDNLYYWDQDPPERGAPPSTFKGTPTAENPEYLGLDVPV
T1 sequence (P00533 whole entry): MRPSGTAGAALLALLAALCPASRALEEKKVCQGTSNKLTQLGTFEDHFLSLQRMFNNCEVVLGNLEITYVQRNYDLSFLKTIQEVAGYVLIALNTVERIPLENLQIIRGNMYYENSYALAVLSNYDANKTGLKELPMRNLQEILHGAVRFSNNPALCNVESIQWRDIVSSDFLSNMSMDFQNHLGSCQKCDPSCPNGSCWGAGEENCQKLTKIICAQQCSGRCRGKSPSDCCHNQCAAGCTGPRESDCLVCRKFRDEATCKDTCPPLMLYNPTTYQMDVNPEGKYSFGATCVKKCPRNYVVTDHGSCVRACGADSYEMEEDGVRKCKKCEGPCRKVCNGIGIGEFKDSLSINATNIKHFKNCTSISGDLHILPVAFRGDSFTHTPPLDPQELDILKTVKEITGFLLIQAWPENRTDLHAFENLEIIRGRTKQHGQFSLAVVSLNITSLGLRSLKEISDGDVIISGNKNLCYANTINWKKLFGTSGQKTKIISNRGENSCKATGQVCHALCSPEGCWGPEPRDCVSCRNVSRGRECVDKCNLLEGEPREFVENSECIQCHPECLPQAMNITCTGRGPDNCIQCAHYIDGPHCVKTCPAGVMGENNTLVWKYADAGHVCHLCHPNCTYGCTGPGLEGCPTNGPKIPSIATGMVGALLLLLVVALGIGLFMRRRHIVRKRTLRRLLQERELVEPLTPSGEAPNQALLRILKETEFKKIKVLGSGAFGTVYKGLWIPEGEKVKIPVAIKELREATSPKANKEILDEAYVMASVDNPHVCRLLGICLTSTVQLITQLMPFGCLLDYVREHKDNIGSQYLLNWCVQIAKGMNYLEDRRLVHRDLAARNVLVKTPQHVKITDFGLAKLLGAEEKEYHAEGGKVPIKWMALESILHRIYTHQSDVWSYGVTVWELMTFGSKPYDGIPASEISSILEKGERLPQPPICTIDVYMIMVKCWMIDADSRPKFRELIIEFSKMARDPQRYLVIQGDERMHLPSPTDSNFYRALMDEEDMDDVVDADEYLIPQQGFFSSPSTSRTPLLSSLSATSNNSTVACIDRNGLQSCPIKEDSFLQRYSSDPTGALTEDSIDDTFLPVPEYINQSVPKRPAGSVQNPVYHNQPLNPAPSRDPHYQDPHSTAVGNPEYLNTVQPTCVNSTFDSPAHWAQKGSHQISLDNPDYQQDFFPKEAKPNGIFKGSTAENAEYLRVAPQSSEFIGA

For `COc1cc(/C=C(\C#N)C(N)=O)cc(CSc2nc3cc(Cl)ccc3s2)c1O`, the IC50 is 83.2 µM in assay [1] and 15.1 µM in assay [2].
In turn, `COc1cc(/C=C(\C#N)C(N)=O)cc(CSc2ccccc2NC(C)=O)c1O` showed an IC50 in assay [2] of 3.31 µM.
Turning to `COc1cc(/C=C(\C#N)C(N)=O)cc(SCCCC(=O)O)c1O`, in assay [1], the IC50 is 47.9 µM.
In the case of `COc1cc(/C=C(\C#N)C(N)=O)cc(SCCC(=O)O)c1O`, in assay [3], the IC50 was 91.2 µM.
In the case of `COc1cc(C=C(C#N)C#N)cc(SCC(=O)O)c1O`, the IC50 in assay [1] was 53.7 µM; in assay [2], 4.57 µM.
As for `Cc1cc(C=C(C#N)C#N)cc(O)c1O`, in assay [2], the IC50 was 58.9 µM.
On the same count and under the same terms, the value for `COc1cc(/C=C(\C#N)C(N)=O)cc(CSc2ccccc2)c1O` was 0.129 µM.
Same read-out and setting: the value for `COc1cc(/C=C(\C#N)C(N)=O)cc(CSc2nc3ccccc3o2)c1O` was 1.51 µM.
On the same count and under the same terms, the result for `COc1cc(C=C(C#N)C#N)cc(CSc2ccccc2C(=O)O)c1O` reads 10 µM; that for `COc1cc(/C=C(\C#N)C(N)=O)cc(CSc2ccccn2)c1O`, 0.708 µM.
Turning to `COc1cc(/C=C(\C#N)C(N)=O)cc(CSc2ccccc2C(=O)O)c1O`, the IC50 in assay [2] was 0.447 µM.
Still for that read-out and setting: the value for `COc1cc(C=C(C#N)C#N)cc(C)c1O` was 112 µM; that for `COc1cc(C=C(C#N)C#N)cc(CSc2ccccc2)c1O` was 2.51 µM.
As for `CC(C)(C)Oc1cc(/C=C(\C#N)C(=N)S)cc(C(C)(C)C)c1O`, the figures for the half-maximal inhibitory concentration (IC50) in assay [1] and in assay [2] were 501 µM and 1 µM, respectively.
The like results for `COc1cc(/C=C(/C#N)C(N)=O)cc(CSCc2ccc(Cl)cc2)c1O` were, in that order, 15.8 µM and 2 µM.
As for `Cc1cc(C)c(NC(=O)/C(C#N)=C/c2ccc(O)c(O)c2)c(C)c1`, the IC50 is 19.1 µM in assay [1] and 20.9 µM in assay [2].
For `COc1cc(/C=C(\C#N)C(N)=O)cc(CSc2cccc3ccccc23)c1O` the same measures were 1.7 µM and 4.57 µM.
For `N#C/C(=C\c1ccc(O)c(O)c1)C(=O)NCc1ccc(O)cc1` the same measures were 3.02 µM and 2.88 µM.
Consider `N#C/C(=C\c1ccc(O)c(O)c1)C(=O)NCCc1ccccc1`, for which the IC50 in assay [1] amounted to 0.617 µM.
As to `COc1cc(/C=C(\C#N)C(N)=O)cc(CSCc2ccccc2Cl)c1O`, in assay [2], the IC50 was 0.251 µM.
Same read-out and setting: the value for `COc1cc(/C=C(\C#N)C(N)=O)cc(CSCc2ccccc2)c1O` was 10 µM.
Still for that read-out and setting: the result for `COc1cc(/C=C(\C#N)C(N)=O)cc(CSc2nc3ccccc3[nH]2)c1O` reads 6.17 µM.
With `COc1cc(/C=C(\C#N)C(N)=O)cc(CSc2ccc(C)cc2)c1O`, 1.66 µM corresponded to half-maximal inhibition in assay [2] (IC50).
`COc1cc(C=C(C#N)C#N)cc(CS(=O)(=O)c2ccc(C)cc2)c1O`: the IC50 in assay [2] is 17.4 µM.
Regarding `CCOc1ccc2sc(SCc3cc(/C=C(\C#N)C(N)=O)cc(OC)c3O)nc2c1`, 166 µM corresponded to half-maximal inhibition in assay [4] (IC50).
In assay [2], `N#C/C(=C\c1cc(O)c(O)c(CSCc2ccccc2)c1)C(N)=O` showed an IC50 of 1.02 µM.
The molecule `N#C/C(=C\c1ccc(O)c(O)c1)C(=O)NCCCCc1ccccc1` showed an IC50 in assay [2] of 501 µM.
As for `N#C/C(=C\c1ccc(O)c(O)c1)C(=O)c1ccc(F)cc1`, inhibition in assay [2] was half-maximal at 12.9 µM (IC50).
Regarding `Cc1cc(C)c(C(=O)/C(C#N)=C/c2ccc(O)c(O)c2)c(C)c1`, the IC50 in assay [1] is 19.1 µM.
Molecule `CCOC(=O)C(Cc1ccccc1)NC(=O)/C(C#N)=C/c1ccc(O)c(O)c1` (centres undefined) gave an IC50 in assay [2] of 331 µM.
The same measure, in the same setting: the result for `N#C/C(=C\c1ccc(O)c(O)c1)C(=O)c1ccc(O)c(O)c1` reads 17 µM.
On the same count and under the same terms, the result for `COc1ccc(NC(=O)/C(C#N)=C/c2ccc(O)c(O)c2)c(OC)c1` reads 166 µM.
